Starred links: 1 amine or outer side, 2 acyl side, 3 side chain; linkers in the order of their positions; H or OH if unused. Positions of bridges follow the written chain, without caps; N, C: chain ends. Residues, ends and D or L forms follow the SMILES beside them. *: point of attachment. C20 diacid = O=C(O)CCCCCCCCCCCCCCCCCCC(=O)*; C18 diacid = O=C(O)CCCCCCCCCCCCCCCCC(=O)*; γGlu = O=C(O)[C@H](CCC(=O)[*:2])N[*:1]
System: ad libitum fed rat
Experiment: Assay (I) efficacy testing on appetite (food intake) using an ad libitum fed rat model
Assay type: in vivo, Sprague Dawley (SD) rats
Conditions: 3 nmol/kg
Method in brief: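 Ad libitum fed Sprague Dawley rats, 200-250 g, singly housed on reversed light cycle, got one ip, po or sc dose of 0.01-3 mg/kg just before lights off; groups of 5-8 with vehicle control. Food intake recorded hourly for 7 h, then at 24 h and sometimes 48 h; Grubbs outliers excluded.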

| SMILES | Food intake reduction 0-24 h 3 nmol/kg (%) | Food intake reduction 24-48 h 3 nmol/kg (%) |
| --- | --- | --- |
| CC[C@H](C)[C@H](NC(=O)[C@@H]1CCCN1C(=O)CNC(=O)[C@H](Cc1ccccc1)NC(=O)[C@H](CC(N)=O)NC(=O)[C@H](CC(N)=O)NC(=O)[C@H](CO)NC(=O)[C@H](CO)NC(=O)[C@H](CCCNC(=N)N)NC(=O)[C@H](Cc1c[nH]cn1)NC(=O)[C@H](CC(C)C)NC(=O)[C@H](Cc1ccccc1)NC(=O)[C@H](CCC(=O)O)NC(=O)[C@H](C)NC(=O)[C@H](CC(C)C)NC(=O)[C@H](CCCNC(=N)N)NC(=O)[C@H](CCC(N)=O)NC(=O)[C@@H](NC(=O)[C@H](C)NC(=O)[C@@H]1CSSC[C@H](NC(=O)CC[C@H](NC(=O)CCCCCCCCCCCCCCCCCCC(=O)O)C(=O)O)C(=O)NCC(=O)N[C@@H]([C@@H](C)O)C(=O)N[C@@H](C)C(=O)N[C@@H]([C@@H](C)O)C(=O)N1)[C@@H](C)O)C(=O)N[C@@H](CC(C)C)C(=O)N1CCC[C@H]1C(=O)N1CCC[C@H]1C(=O)N[C@H](C(=O)N[C@@H](CCC(=O)O)C(=O)N[C@H](C(=O)NCC(=O)N[C@@H](CO)C(=O)NCC(=O)N[C@H](C(=O)N[C@@H](Cc1ccc(O)cc1)C(N)=O)[C@@H](C)O)C(C)C)[C@@H](C)O [Example 3, N-alpha-[(S)-4-Carboxy-4-(19-carboxynonadecanoylamino)butyryl]-[des1,Gly3,Glu14,His17,Arg18,Glu31,Gly35]-pramlintide] ({C20 diacid-γGlu}-CGTATCATQRLAEFLHRSSNNFGPILPPTEVGSGTY-NH2; disulfide 1-6) | 37 | 32 |
| CC[C@H](C)[C@H](NC(=O)[C@@H]1CCCN1C(=O)CNC(=O)[C@H](Cc1ccccc1)NC(=O)[C@H](CC(N)=O)NC(=O)[C@H](CC(N)=O)NC(=O)[C@H](CO)NC(=O)[C@H](CO)NC(=O)[C@H](Cc1c[nH]cn1)NC(=O)[C@H](Cc1c[nH]cn1)NC(=O)[C@H](CC(C)C)NC(=O)[C@H](Cc1ccccc1)NC(=O)[C@H](CCC(=O)O)NC(=O)[C@H](C)NC(=O)[C@H](CC(C)C)NC(=O)[C@H](CCCNC(=N)N)NC(=O)[C@H](CCC(N)=O)NC(=O)[C@@H](NC(=O)[C@H](C)NC(=O)[C@@H]1CSSC[C@H](NC(=O)[C@H](Cc2c[nH]cn2)NC(=O)CC[C@H](NC(=O)CCCCCCCCCCCCCCCCCCC(=O)O)C(=O)O)C(=O)N[C@@H](CC(N)=O)C(=O)N[C@@H]([C@@H](C)O)C(=O)N[C@@H](C)C(=O)N[C@@H]([C@@H](C)O)C(=O)N1)[C@@H](C)O)C(=O)N[C@@H](CC(C)C)C(=O)N1CCC[C@H]1C(=O)N1CCC[C@H]1C(=O)N[C@H](C(=O)N[C@@H](CC(N)=O)C(=O)N[C@H](C(=O)NCC(=O)N[C@@H](CO)C(=O)N[C@@H](CC(N)=O)C(=O)N[C@H](C(=O)N1CCC[C@H]1C(N)=O)[C@@H](C)O)C(C)C)[C@@H](C)O [Example 84, N-alpha-[(S)-4-Carboxy-4-(19-carboxynonadecanoylamino)butyryl]-[His1,Glu14,His17,Pro37]-pramlintide] ({C20 diacid-γGlu}-HCNTATCATQRLAEFLHHSSNNFGPILPPTNVGSNTP-NH2; disulfide 2-7 (inferred)) | 68 | 67 |
| CC[C@H](C)[C@H](NC(=O)[C@@H]1CCCN1C(=O)CNC(=O)[C@H](Cc1ccccc1)NC(=O)[C@H](CC(N)=O)NC(=O)[C@H](CC(N)=O)NC(=O)[C@H](CO)NC(=O)[C@H](CO)NC(=O)[C@H](Cc1c[nH]cn1)NC(=O)[C@H](Cc1c[nH]cn1)NC(=O)[C@H](CC(C)C)NC(=O)[C@H](Cc1ccccc1)NC(=O)[C@H](CCC(=O)O)NC(=O)[C@H](C)NC(=O)[C@H](CC(C)C)NC(=O)[C@H](CCCNC(=N)N)NC(=O)[C@H](CCC(N)=O)NC(=O)[C@@H](NC(=O)[C@H](C)NC(=O)[C@@H]1CSSC[C@H](NC(=O)[C@H](Cc2c[nH]cn2)NC(=O)[C@H](Cc2c[nH]cn2)NC(=O)[C@H](Cc2c[nH]cn2)NC(=O)CC[C@H](NC(=O)CCCCCCCCCCCCCCCCCCC(=O)O)C(=O)O)C(=O)N[C@@H](CCCNC(=N)N)C(=O)N[C@@H]([C@@H](C)O)C(=O)N[C@@H](C)C(=O)N[C@@H]([C@@H](C)O)C(=O)N1)[C@@H](C)O)C(=O)N[C@@H](CC(C)C)C(=O)N1CCC[C@H]1C(=O)N1CCC[C@H]1C(=O)N[C@H](C(=O)N[C@@H](CC(N)=O)C(=O)N[C@H](C(=O)NCC(=O)N[C@@H](CO)C(=O)N[C@@H](CC(N)=O)C(=O)N[C@H](C(=O)N[C@@H](Cc1ccc(O)cc1)C(N)=O)[C@@H](C)O)C(C)C)[C@@H](C)O [Example 22, N-alpha-[(S)-4-Carboxy-4-(19-carboxynonadecanoylamino)butyryl]-His-His-[His1,Arg3,Glu14,His17]-pramlintide] ({C20 diacid-γGlu}-HHHCRTATCATQRLAEFLHHSSNNFGPILPPTNVGSNTY-NH2; disulfide 4-9 (inferred)) | 26 | 5 |
| CC[C@H](C)[C@H](NC(=O)[C@H](CCC(=O)O)NC(=O)CNC(=O)[C@H](Cc1ccccc1)NC(=O)[C@H](CC(N)=O)NC(=O)[C@H](CC(N)=O)NC(=O)[C@H](CO)NC(=O)[C@H](CO)NC(=O)[C@H](CCCNC(=N)N)NC(=O)[C@H](Cc1c[nH]cn1)NC(=O)[C@H](CC(C)C)NC(=O)[C@H](Cc1ccccc1)NC(=O)[C@H](CCC(=O)O)NC(=O)[C@H](C)NC(=O)[C@H](CC(C)C)NC(=O)[C@H](CCCNC(=N)N)NC(=O)[C@H](CCC(N)=O)NC(=O)[C@@H](NC(=O)[C@H](C)NC(=O)[C@@H]1CSSC[C@H](NC(=O)[C@H](Cc2c[nH]cn2)NC(=O)CC[C@H](NC(=O)CCCCCCCCCCCCCCCCCCC(=O)O)C(=O)O)C(=O)N[C@@H](CC(N)=O)C(=O)N[C@@H]([C@@H](C)O)C(=O)N[C@@H](C)C(=O)N[C@@H]([C@@H](C)O)C(=O)N1)[C@@H](C)O)C(=O)N[C@@H](CC(C)C)C(=O)N[C@@H](CO)C(=O)N[C@@H](CCCNC(=N)N)C(=O)N[C@H](C(=O)N[C@@H](CC(N)=O)C(=O)N[C@H](C(=O)NCC(=O)N[C@@H](CO)C(=O)N[C@@H](CC(N)=O)C(=O)N[C@H](C(=O)N[C@@H](Cc1ccc(O)cc1)C(N)=O)[C@@H](C)O)C(C)C)[C@@H](C)O [Example 7, N-alpha-[(S)-4-Carboxy-4-(19-carboxynonadecanoylamino)butyryl]-[His1,Glu14,His17,Arg18,Glu25,Ser28,Arg29]-pramlintide] ({C20 diacid-γGlu}-HCNTATCATQRLAEFLHRSSNNFGEILSRTNVGSNTY-NH2; disulfide 2-7 (inferred)) | 53 | 46 |
| CC[C@H](C)[C@H](NC(=O)[C@@H]1CCCN1C(=O)CNC(=O)[C@H](Cc1ccccc1)NC(=O)[C@H](CC(N)=O)NC(=O)[C@H](CC(N)=O)NC(=O)[C@H](CO)NC(=O)[C@H](CO)NC(=O)[C@H](Cc1c[nH]cn1)NC(=O)[C@H](Cc1c[nH]cn1)NC(=O)[C@H](CC(C)C)NC(=O)[C@H](Cc1ccccc1)NC(=O)[C@H](CCC(=O)O)NC(=O)[C@H](C)NC(=O)[C@H](CC(C)C)NC(=O)[C@H](CCCNC(=N)N)NC(=O)[C@H](CCC(N)=O)NC(=O)[C@@H](NC(=O)[C@H](C)NC(=O)[C@@H]1CSSC[C@H](NC(=O)[C@H](CCCCN)NC(=O)CC[C@H](NC(=O)CCCCCCCCCCCCCCCCC(=O)O)C(=O)O)C(=O)N[C@@H](CC(N)=O)C(=O)N[C@@H]([C@@H](C)O)C(=O)N[C@@H](C)C(=O)N[C@@H]([C@@H](C)O)C(=O)N1)[C@@H](C)O)C(=O)N[C@@H](CC(C)C)C(=O)N1CCC[C@H]1C(=O)N1CCC[C@H]1C(=O)N[C@H](C(=O)N[C@@H](CC(N)=O)C(=O)N[C@H](C(=O)NCC(=O)N[C@@H](CO)C(=O)N[C@@H](CC(N)=O)C(=O)N[C@H](C(=O)N[C@@H](Cc1ccc(O)cc1)C(N)=O)[C@@H](C)O)C(C)C)[C@@H](C)O [Example 46, N-alpha-[(S)-4-Carboxy-4-(17-carboxyheptadecanoylamino)butyryl]-[Glu14,His17]-pramlintide] ({C18 diacid-γGlu}-KCNTATCATQRLAEFLHHSSNNFGPILPPTNVGSNTY-NH2; disulfide 2-7 (inferred); C-terminus assumed) | 54 | 27 |
| CC[C@H](C)[C@H](NC(=O)[C@@H]1CCCN1C(=O)CNC(=O)[C@H](Cc1ccccc1)NC(=O)[C@H](CC(N)=O)NC(=O)[C@H](CC(N)=O)NC(=O)[C@H](CO)NC(=O)[C@H](CO)NC(=O)[C@H](Cc1c[nH]cn1)NC(=O)[C@H](Cc1c[nH]cn1)NC(=O)[C@H](CC(C)C)NC(=O)[C@H](Cc1ccccc1)NC(=O)[C@H](CCC(=O)O)NC(=O)[C@H](C)NC(=O)[C@H](CC(C)C)NC(=O)[C@H](CCCNC(=N)N)NC(=O)[C@H](CCC(N)=O)NC(=O)[C@@H](NC(=O)[C@H](C)NC(=O)[C@@H]1CSSC[C@H](NC(=O)[C@H](CCC(=O)O)NC(=O)CC[C@H](NC(=O)CCCCCCCCCCCCCCCCCCC(=O)O)C(=O)O)C(=O)N[C@@H](CC(N)=O)C(=O)N[C@@H]([C@@H](C)O)C(=O)N[C@@H](C)C(=O)N[C@@H]([C@@H](C)O)C(=O)N1)[C@@H](C)O)C(=O)N[C@@H](CC(C)C)C(=O)N1CCC[C@H]1C(=O)N1CCC[C@H]1C(=O)N[C@H](C(=O)N[C@@H](CC(N)=O)C(=O)N[C@H](C(=O)NCC(=O)N[C@@H](CO)C(=O)N[C@@H](CC(N)=O)C(=O)N[C@H](C(=O)N[C@@H](Cc1ccc(O)cc1)C(N)=O)[C@@H](C)O)C(C)C)[C@@H](C)O [Example 29, N-alpha-[(S)-4-Carboxy-4-(19-carboxynonadecanoylamino)butyryl]-[Glu1,Glu14,His17]-pramlintide] ({C20 diacid-γGlu}-ECNTATCATQRLAEFLHHSSNNFGPILPPTNVGSNTY-NH2; disulfide 2-7 (inferred); C-terminus assumed) | 15 | 5 |

Reference: patent US8741836B2, “Polypeptides” (Novo Nordisk A/S, priority 2011, dated 2014)
